Reference: ChEMBL document CHEMBL1143095, “Discovery of [(3-bromo-7-cyano-2-naphthyl)(difluoro)methyl]phosphonic acid, a potent and orally active small molecule PTP1B inhibitor” (Bioorg Med Chem Lett, 2008)

Tests used:
[1] = molecular target: T1, Tyrosine-protein phosphatase non-receptor type 1 (Homo sapiens, UniProt P18031); experiment: Inhibition of PTP1B by fluorescein diphosphate assay
T1 sequence (P18031 whole entry): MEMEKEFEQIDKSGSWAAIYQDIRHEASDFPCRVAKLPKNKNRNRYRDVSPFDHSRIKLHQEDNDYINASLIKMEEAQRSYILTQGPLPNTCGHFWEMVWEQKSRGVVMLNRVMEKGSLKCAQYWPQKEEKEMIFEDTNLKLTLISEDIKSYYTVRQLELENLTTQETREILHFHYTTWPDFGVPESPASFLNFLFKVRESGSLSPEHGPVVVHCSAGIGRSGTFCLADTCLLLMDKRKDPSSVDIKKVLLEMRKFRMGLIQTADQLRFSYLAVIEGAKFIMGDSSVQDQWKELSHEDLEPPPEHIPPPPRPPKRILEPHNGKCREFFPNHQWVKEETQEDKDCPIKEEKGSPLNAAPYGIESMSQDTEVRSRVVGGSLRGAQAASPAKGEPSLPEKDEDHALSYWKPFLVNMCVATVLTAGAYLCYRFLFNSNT

[2] = molecular target: T2, Receptor-type tyrosine-protein phosphatase C (Homo sapiens, UniProt P08575); experiment: Inhibition of CD45 by fluorescein diphosphate assay
T2 sequence (P08575 whole entry): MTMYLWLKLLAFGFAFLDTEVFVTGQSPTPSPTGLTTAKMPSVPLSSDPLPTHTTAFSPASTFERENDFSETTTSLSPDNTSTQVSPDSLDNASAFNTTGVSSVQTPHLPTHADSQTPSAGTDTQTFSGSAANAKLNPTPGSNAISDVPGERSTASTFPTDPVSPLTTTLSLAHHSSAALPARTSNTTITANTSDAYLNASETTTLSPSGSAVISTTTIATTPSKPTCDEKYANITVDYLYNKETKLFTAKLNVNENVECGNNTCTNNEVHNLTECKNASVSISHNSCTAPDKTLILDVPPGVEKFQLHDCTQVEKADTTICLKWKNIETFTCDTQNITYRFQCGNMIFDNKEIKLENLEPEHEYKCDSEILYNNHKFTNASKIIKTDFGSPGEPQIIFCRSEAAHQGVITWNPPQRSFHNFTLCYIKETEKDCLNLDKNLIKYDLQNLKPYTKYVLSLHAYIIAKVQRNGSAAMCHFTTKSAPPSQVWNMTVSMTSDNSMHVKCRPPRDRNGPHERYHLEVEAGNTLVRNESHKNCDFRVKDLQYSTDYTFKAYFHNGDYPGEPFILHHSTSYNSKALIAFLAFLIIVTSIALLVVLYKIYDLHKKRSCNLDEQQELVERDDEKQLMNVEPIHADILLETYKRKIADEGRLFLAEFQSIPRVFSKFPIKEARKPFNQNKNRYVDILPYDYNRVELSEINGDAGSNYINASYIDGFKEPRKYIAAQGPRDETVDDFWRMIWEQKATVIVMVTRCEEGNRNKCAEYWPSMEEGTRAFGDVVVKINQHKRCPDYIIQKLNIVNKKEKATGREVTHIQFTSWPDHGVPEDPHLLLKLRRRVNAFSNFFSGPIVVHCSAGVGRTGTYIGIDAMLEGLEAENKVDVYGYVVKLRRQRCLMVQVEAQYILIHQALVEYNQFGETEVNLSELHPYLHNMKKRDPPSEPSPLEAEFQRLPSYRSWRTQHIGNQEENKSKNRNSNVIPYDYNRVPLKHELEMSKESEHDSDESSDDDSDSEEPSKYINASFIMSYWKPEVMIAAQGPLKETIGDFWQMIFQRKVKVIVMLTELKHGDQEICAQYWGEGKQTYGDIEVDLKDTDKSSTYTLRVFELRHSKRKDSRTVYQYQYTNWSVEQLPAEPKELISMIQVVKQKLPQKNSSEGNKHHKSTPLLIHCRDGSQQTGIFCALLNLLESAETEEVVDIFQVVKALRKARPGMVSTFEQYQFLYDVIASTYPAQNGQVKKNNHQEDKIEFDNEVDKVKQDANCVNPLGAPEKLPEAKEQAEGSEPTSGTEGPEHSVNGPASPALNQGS

[3] = Cmax in mouse plasma at 20 mg/kg, po after 2 hrs; format: ADME, organism-based; parameters: dose 20 mg/kg, route oral
[4] = Oral bioavailability in DIO mouse at 5 mg/kg, iv and 20 mg/kg, po; format: ADME, organism-based; conditions: in vivo
[5] = Elimination half life in DIO mouse at 5 mg/kg, iv and 20 mg/kg, po; format: ADME, organism-based; conditions: in vivo
[6] = Clearance in DIO mouse at 5 mg/kg, iv and 20 mg/kg, po; format: ADME, organism-based; conditions: in vivo
[7] = Cmax in DIO mouse at 5 mg/kg, iv and 20 mg/kg, po; format: ADME, organism-based; conditions: in vivo
[8] = Drug level in DIO mouse at 5 mg/kg, iv and 20 mg/kg, po after 24 hrs; format: ADME, organism-based; conditions: in vivo, read-out: Drug uptake
[9] = Oral bioavailability in rat at 5 mg/kg, iv and 20 mg/kg, po; format: ADME, organism-based; conditions: in vivo
[10] = Elimination half life in rat at 5 mg/kg, iv and 20 mg/kg, po; format: ADME, organism-based; conditions: in vivo
[11] = Clearance in rat at 5 mg/kg, iv and 20 mg/kg, po; format: ADME, organism-based; conditions: in vivo
[12] = Cmax in rat at 5 mg/kg, iv and 20 mg/kg, po; format: ADME, organism-based; conditions: in vivo
[13] = Drug level in rat at 5 mg/kg, iv and 20 mg/kg, po after 24 hrs; format: ADME, organism-based; conditions: in vivo, read-out: Drug uptake
[14] = Oral bioavailability in Squirrel monkey at 5 mg/kg, iv and 10 mg/kg, po; format: ADME, organism-based, Saimiri sciureus; conditions: in vivo
[15] = Elimination half life in Squirrel monkey at 5 mg/kg, iv and 10 mg/kg, po; format: ADME, organism-based, Saimiri sciureus; conditions: in vivo
[16] = Clearance in Squirrel monkey at 5 mg/kg, iv and 10 mg/kg, po; format: ADME, organism-based, Saimiri sciureus; conditions: in vivo
[17] = Cmax in Squirrel monkey at 5 mg/kg, iv and 10 mg/kg, po; format: ADME, organism-based, Saimiri sciureus; conditions: in vivo
[18] = Drug level in Squirrel monkey at 5 mg/kg, iv and 10 mg/kg, po after 24 hrs; format: ADME, organism-based, Saimiri sciureus; conditions: in vivo, read-out: Drug uptake
Mus musculus [19] = experiment: Inhibition of glucose excursion in DIO mouse glucose challenged 2 hrs before the test at 1 mg/kg by oral glucose tolerance test; format: functional
Mus musculus [20] = experiment: Inhibition of glucose excursion in DIO mouse glucose challenged 2 hrs before the test at 3 mg/kg by oral glucose tolerance test; format: functional
Mus musculus [21] = experiment: Inhibition of glucose excursion in DIO mouse glucose challenged 2 hrs before the test at 10 mg/kg by oral glucose tolerance test; format: functional
Mus musculus [22] = species: Mus musculus; experiment: Inhibition of glucose excursion in DIO mouse glucose challenged 2 hrs before the oral glucose tolerance test; format: functional
[23] = Cmax in C57BL/6 mouse plasma at 10 mg/kg; format: ADME, organism-based; parameters: dose 10 mg/kg
[24] = Oral bioavailability in rat; format: ADME, organism-based; conditions: in vivo
[25] = Cmax in rat plasma at 20 mg/kg; format: ADME, organism-based; parameters: dose 20 mg/kg
[26] = Elimination half life in rat plasma; format: ADME, organism-based

Compound	IC50 [1] [nM]	IC50 [2] [nM]	other results
O=C(Nc1cccc(F)c1)c1ccc2cc(Br)c(C(F)(F)P(=O)(O)O)cc2n1	27	> 50000	–
CNC(=O)c1ccc2cc(Br)c(C(F)(F)P(=O)(O)O)cc2n1	1260	> 50000	–
Cc1ccc2ccc(C(F)(F)P(=O)(O)O)cc2n1	> 50000	> 50000	–
O=P(O)(O)C(F)(F)c1cc2ccccc2cc1Br	–	–	Ki [1]: 179000 nM
NC(=O)c1ccc2cc(Br)c(C(F)(F)P(=O)(O)O)cc2n1	250	> 50000	Cmax [23]: 0.3 µM
Cc1ccc2cc(Br)c(C(F)(F)P(=O)(O)O)cc2c1	330	> 50000	–
O=C(Nc1ccccc1)c1ccc2cc(Br)c(C(F)(F)P(=O)(O)O)cc2n1	60	> 50000	–
O=C(NCc1ccccc1)c1ccc2cc(Br)c(C(F)(F)P(=O)(O)O)cc2n1	45	> 50000	–
Cc1ccc2cc(Br)c(C(F)(F)P(=O)(O)O)cc2n1	14000	> 50000	bioavailability [24]: 5%; Cmax [25]: 43.3 µM; half-life [26]: > 8 h

Continued, in another order:

IC50 [1] [nM]	IC50 [2] [nM]	Compound	other results
1500	> 50000	CC(=O)NCc1ccc2cc(Br)c(C(F)(F)P(=O)(O)O)cc2c1	–
510	> 50000	COCc1ccc2cc(Br)c(C(F)(F)P(=O)(O)O)cc2c1	–
–	> 50000	O=C(c1ccccc1)C(Cc1ccc(C(F)(F)P(=O)(O)O)c(Br)c1)c1ccccc1 (centres undefined)	–
1300	> 50000	CS(=O)(=O)Cc1ccc2cc(Br)c(C(F)(F)P(=O)(O)O)cc2c1	–
90	26800	N#CCc1ccc2cc(Br)c(C(F)(F)P(=O)(O)O)cc2c1	Cmax [3]: 6 µM
16	50000	CC(Cc1ccc(C(F)(F)P(=O)(O)O)cc1)(c1ccccc1)n1nnc2ccccc21 (centres undefined)	–
–	> 50000	N#Cc1ccc2cc(Br)c(C(F)(F)P(=O)(O)O)cc2c1	bioavailability [4]: 24%; half-life [5]: 6 h; clearance [6]: 42.6 mL/h/kg; Cmax [7]: 17.4 µM; concentration at 24 h [8]: 9 µM; bioavailability [9]: 4%; half-life [10]: > 17 h; clearance [11]: 1.8 mL/h/kg; Cmax [12]: 75.6 µM; concentration at 24 h [13]: 45.3 µM; bioavailability [14]: 2%; half-life [15]: > 30 h; clearance [16]: 1.2 mL/h/kg; Cmax [17]: 24 µM; concentration at 24 h [18]: 19 µM; inhibition in vivo at 1 mg/kg (Mus musculus [19]): 60%; inhibition in vivo at 3 mg/kg (Mus musculus [20]): 80%; inhibition in vivo at 10 mg/kg (Mus musculus [21]): 100%; ED50 (Mus musculus [22]): 0.8 mg/kg
160	> 50000	O=P(O)(O)C(F)(F)c1cc2nc(/C=C/c3ccccc3)ccc2cc1Br	–
310	> 50000	N#Cc1ccc2cc(C(F)(F)P(=O)(O)O)c(Br)cc2c1	–
7	37800	O=C(O)c1cccc(/C=C/c2ccc3cc(Br)c(C(F)(F)P(=O)(O)O)cc3n2)c1	–
